Data taken from ChEMBL document CHEMBL3526086, “Identification of the oxidative and conjugative enzymes involved in the biotransformation of brivanib” (Drug Metab Dispos, 2012).

Target: Cytochrome P450 2C9 (Homo sapiens, UniProt P11712)
Test: Drug metabolism assessed as human CYP2C9-mediated (R)-1-(4-(4-fluoro-2-(hydroxymethyl)-1H-indol-5-yloxy)-5-methylpyrrolo[1,2-f][1,2,4]triazin-6-yloxy)propan-2-ol formation at 2 and 20 uM for 20 mins by LC/MS analysis in presence of NADPH
Type: ADME
Details: recombinant enzyme

Chain of Cytochrome P450 2C9 (P11712 whole entry): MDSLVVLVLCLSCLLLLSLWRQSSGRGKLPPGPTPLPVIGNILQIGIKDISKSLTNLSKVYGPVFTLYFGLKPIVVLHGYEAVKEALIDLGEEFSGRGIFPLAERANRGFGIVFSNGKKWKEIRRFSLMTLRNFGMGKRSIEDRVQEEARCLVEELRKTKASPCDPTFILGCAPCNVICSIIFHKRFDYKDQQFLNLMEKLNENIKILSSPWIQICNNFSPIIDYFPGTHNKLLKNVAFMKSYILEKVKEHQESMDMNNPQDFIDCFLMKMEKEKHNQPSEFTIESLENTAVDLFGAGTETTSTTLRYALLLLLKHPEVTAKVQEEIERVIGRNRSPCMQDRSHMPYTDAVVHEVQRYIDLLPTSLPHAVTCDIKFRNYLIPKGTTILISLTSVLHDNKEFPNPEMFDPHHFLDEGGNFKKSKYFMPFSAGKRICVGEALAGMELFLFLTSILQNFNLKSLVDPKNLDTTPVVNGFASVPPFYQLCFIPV

Cc1cc2c(F)c(Oc3ncnn4cc(OC[C@@H](C)O)c(C)c34)ccc2[nH]1 [BRIVANIB]
Drug metabolism: metabolite_detected
